Experimental data taken from the supplement of paper PMC4380931.
± gives the standard deviation of the averaged measurements.

Legend:
C32 [1] = test: relative viability (cell count relative to DMSO-treated control) (fraction of DMSO control); higher = more viable cells / less drug effect; details: 72 h
Protocol: (§1)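 BRAF V600E/D melanoma cell lines were seeded in 96-well plates, treated in 4 replicates with seven doses (3.16 nM to 3.16 uM) of RAF/MEK inhibitors for 24, 48 or 72 h, and stained with Hoechst 33342 (nuclei) and DEVD-NucView488 caspase-3 substrate. Plates were imaged on an Operetta. Relative viability is the cell count normalised to a DMSO-treated control; apoptosis fraction is the fraction of NucView488-positive nuclei.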

MMACSF = test: apoptotic fraction of cells (caspase-3 NucView488 positive); higher = more apoptosis
Protocol: as §1

SKMEL28 = test: as above
Protocol: as §1

C32 [2] = test: as above
Protocol: as §1

Cc1ccc(NC(=O)c2cccc(C(C)(C)C#N)c2)cc1Nc1ccc2ncn(C)c(=O)c2c1 [AZ628]
C32 [1]
Details	relative viability
0.1 µM	0.45 ± 0.024
0.316 µM	0.163 ± 0.029
1 µM	0.059 ± 0.0094
3.16 µM	0.0269 ± 0.0051

apoptotic fraction of cells
Details	0.00316 µM	0.01 µM	0.0316 µM	0.1 µM	0.316 µM	1 µM	3.16 µM
C32 [2], 24 h	0.0886 ± 0.003	0.128 ± 0.017	0.177 ± 0.042	0.226 ± 0.023	0.28 ± 0.018	0.338 ± 0.034	0.24 ± 0.017
C32 [2], 48 h	0.0865 ± 0.014	0.103 ± 0.017	0.0851 ± 0.017	0.213 ± 0.017	0.509 ± 0.052	0.847 ± 0.011	0.9051 ± 0.0087
C32 [2], 72 h	0.0829 ± 0.007	0.0581 ± 0.01	0.0379 ± 0.0014	0.301 ± 0.017	0.676 ± 0.038	0.886 ± 0.026	0.941 ± 0.012
MMACSF, 24 h	0.0452 ± 0.0074	0.0505 ± 0.0049	0.0425 ± 0.00091	0.0308 ± 0.0097	0.0456 ± 0.0044	0.0524 ± 0.0063	0.0606 ± 0.0028
MMACSF, 48 h	0.0483 ± 0.0032	0.0434 ± 0.0037	0.0445 ± 0.0047	0.0497 ± 0.0076	0.0653 ± 0.0076	0.159 ± 0.024	0.25 ± 0.017
MMACSF, 72 h	0.0431 ± 0.004	0.0411 ± 0.0056	0.0335 ± 0.0051	0.083 ± 0.018	0.226 ± 0.014	0.465 ± 0.012	0.62 ± 0.023
SKMEL28, 48 h	0.04 ± 0.0087	0.0326 ± 0.0059	0.032 ± 0.0054	0.0352 ± 0.0054	0.0404 ± 0.0032	0.063 ± 0.0078	0.09 ± 0.0097
SKMEL28, 72 h	0.0319 ± 0.0039	0.028 ± 0.0073	0.0262 ± 0.0049	0.0319 ± 0.011	0.0526 ± 0.0099	0.107 ± 0.0053	0.142 ± 0.0076
